Numbers after ± are expanded uncertainties.
What was measured:
[1] = xn = mol fraction of the nth substance listed; settings: 298.15 K, Liquid, Vibrating tube method
[2] = Liquid; for mass density: 298.15 K, Vibrating tube method
[3] = refractive index (Na D-line) (dimensionless); settings: 298.15 K; 101.33 kPa; Liquid; Standard Abbe refractometry

CCOC(C)=O [ethyl acetate] + CCCO
mass density ([1]; x1 = 0.0442): 804.5 ± 0.3 kg/m3 | mass density ([1]; x1 = 0.0911): 809.6 ± 0.3 kg/m3 | mass density ([1]; x1 = 0.1433): 815.2 ± 0.3 kg/m3 | mass density ([1]; x1 = 0.201): 821.3 ± 0.3 kg/m3 | mass density ([1]; x1 = 0.2417): 825.5 ± 0.3 kg/m3 | mass density ([1]; x1 = 0.2986): 831.4 ± 0.3 kg/m3 | mass density ([1]; x1 = 0.3435): 835.9 ± 0.3 kg/m3 | mass density ([1]; x1 = 0.4654): 847.6 ± 0.2 kg/m3 | mass density ([1]; x1 = 0.5534): 855.8 ± 0.2 kg/m3 | mass density ([1]; x1 = 0.6461): 864.2 ± 0.2 kg/m3 | mass density ([1]; x1 = 0.6917): 868.2 ± 0.2 kg/m3 | mass density ([1]; x1 = 0.7647): 874.5 ± 0.2 kg/m3 | mass density ([1]; x1 = 0.8037): 877.9 ± 0.2 kg/m3 | mass density ([1]; x1 = 0.8347): 880.5 ± 0.2 kg/m3 | mass density ([1]; x1 = 0.8535): 882.1 ± 0.2 kg/m3 | mass density ([1]; x1 = 0.9053): 886.4 ± 0.2 kg/m3 | mass density ([1]; x1 = 0.9649): 891.4 ± 0.2 kg/m3 | mass density ([1]; x1 = 1): 894.5 ± 0.2 kg/m3

CCCO [propan-1-ol] + CCOC(C)=O
mass density ([1]; x2 = 0): 799.6 ± 0.3 kg/m3

COC(C)=O [methyl ethanoate]
vapor or sublimation pressure ([2]; 393.01 K, Ebulliometric method (Recirculating still)): 600 ± 8.7 kPa

CCCO [propan-1-ol] + CCCOC(C)=O
mass density ([1]; x2 = 0): 799.6 ± 0.3 kg/m3

CCOC(C)=O [ethyl acetate]
mass density [2]: 894.5 ± 0.2 kg/m3 | vapor or sublimation pressure ([2]; 417.02 K, Ebulliometric method (Recirculating still)): 600 ± 8.4 kPa | Normal boiling temperature ([2]; Ebulliometric method (Recirculating still)): 77.04 ± 0.3 °C | refractive index [3]: 1.3698 ± 0.0005

CCCOC(C)=O [propyl ethanoate]
mass density [2]: 882.4 ± 0.2 kg/m3 | vapor or sublimation pressure ([2]; 446.02 K, Ebulliometric method (Recirculating still)): 600 ± 8.4 kPa

CCCO [propan-1-ol]
mass density [2]: 799.6 ± 0.3 kg/m3 | vapor or sublimation pressure ([2]; 427.2 K, Ebulliometric method (Recirculating still)): 600 ± 8.7 kPa

CCCOC(C)=O [propyl ethanoate] + CCCO
mass density ([1]; x1 = 0.0544): 805.9 ± 0.3 kg/m3 | mass density ([1]; x1 = 0.0997): 810.9 ± 0.3 kg/m3 | mass density ([1]; x1 = 0.1515): 816.5 ± 0.3 kg/m3 | mass density ([1]; x1 = 0.1951): 821 ± 0.3 kg/m3 | mass density ([1]; x1 = 0.2503): 826.4 ± 0.3 kg/m3 | mass density ([1]; x1 = 0.3164): 832.6 ± 0.3 kg/m3 | mass density ([1]; x1 = 0.3481): 835.4 ± 0.3 kg/m3 | mass density ([1]; x1 = 0.4144): 841.2 ± 0.3 kg/m3 | mass density ([1]; x1 = 0.4959): 847.9 ± 0.2 kg/m3 | mass density ([1]; x1 = 0.5463): 851.8 ± 0.2 kg/m3 | mass density ([1]; x1 = 0.6051): 856.2 ± 0.2 kg/m3 | mass density ([1]; x1 = 0.6968): 862.8 ± 0.2 kg/m3 | mass density ([1]; x1 = 0.7528): 866.6 ± 0.2 kg/m3 | mass density ([1]; x1 = 0.7893): 869 ± 0.2 kg/m3 | mass density ([1]; x1 = 0.7984): 869.7 ± 0.2 kg/m3 | mass density ([1]; x1 = 0.8531): 873.2 ± 0.2 kg/m3 | mass density ([1]; x1 = 0.8873): 875.4 ± 0.2 kg/m3 | mass density ([1]; x1 = 0.9521): 879.4 ± 0.2 kg/m3 | mass density ([1]; x1 = 1): 882.4 ± 0.2 kg/m3

— the NIST ThermoML archive (doi:10.1021/je400622g)
